Read-outs that look alike come from different tables or passages of the source.
Tests used:
ECE-1 [1] = target: T1, ECE-1 (Bos taurus, UniProt P42891); assay: Protease inhibitor assay of ECE-1, solubilized CHO/ECE-1 membranes, big ET-1 conversion, pH 6.8; assay type: biochemical, bovine; details: sensitivity to protease inhibitors, Table 2
T1 construct: made in house
T1 sequence (P42891 1-754): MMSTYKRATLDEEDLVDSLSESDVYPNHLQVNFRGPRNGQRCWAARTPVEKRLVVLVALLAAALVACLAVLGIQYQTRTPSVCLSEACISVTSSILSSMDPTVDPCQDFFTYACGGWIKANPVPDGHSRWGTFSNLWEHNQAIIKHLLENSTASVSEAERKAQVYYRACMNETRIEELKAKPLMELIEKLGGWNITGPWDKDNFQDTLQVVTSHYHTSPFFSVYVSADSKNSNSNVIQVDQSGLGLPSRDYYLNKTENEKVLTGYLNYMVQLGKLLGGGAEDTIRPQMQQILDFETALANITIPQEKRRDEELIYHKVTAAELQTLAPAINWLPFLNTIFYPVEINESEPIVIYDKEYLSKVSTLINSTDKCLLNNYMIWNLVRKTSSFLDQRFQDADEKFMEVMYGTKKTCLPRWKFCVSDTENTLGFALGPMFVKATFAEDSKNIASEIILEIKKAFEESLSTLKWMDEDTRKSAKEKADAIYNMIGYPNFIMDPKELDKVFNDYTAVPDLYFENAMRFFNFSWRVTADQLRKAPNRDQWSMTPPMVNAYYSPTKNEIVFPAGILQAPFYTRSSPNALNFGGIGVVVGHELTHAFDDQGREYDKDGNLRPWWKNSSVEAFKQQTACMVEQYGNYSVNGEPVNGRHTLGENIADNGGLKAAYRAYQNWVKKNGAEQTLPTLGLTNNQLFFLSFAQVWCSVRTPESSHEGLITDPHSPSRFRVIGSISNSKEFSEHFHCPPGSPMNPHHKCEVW
Description: Solubilized crude membranes were prepared in parallel from CHO/ECE-2 and CHO/ECE-1 cells as described (Xu et al., 1994). For protease inhibitor studies, membranes were prepared without protease inhibitors. Standard reaction mixtures for the ECE-2 assay (50 μl) contained 0.1M 2-[N-morpholino]ethanesulfonic acid (MES) buffer (pH 5.5), 0.5M NaCl, 0.1 μM human big ET-1 and an enzyme fraction. ECE-1 assay reactions contained 0.1M phosphate buffer (pH 6.8) instead of the MES buffer. For the pH profiling and isopeptide selectivity studies, the buffer solution (0.1M) or the substrate (0.1 μM) was substituted as designated. For the inhibitor studies, the reactions were preincubated at 37° C. with protease inhibitor or vehicle for 15 min. Reactions were started by the addition of substrate, and incubated at 37° C. for 30 min in siliconized 0.5-ml microcentrifuge tubes. […] The mixture was then directly assayed for mature ET-1 as described (Suzuki et al., 1989). Duplicate assay wells were used for each enzyme reaction. […] Protein concentrations were determined by the Bradford method (Bio-Rad) using IgG as standard.

ECE-2 [2] = target: T2, ECE-2 (Bos taurus, UniProt P0DPE2); assay: Protease inhibitor assay of ECE-2, solubilized CHO/ECE-2 membranes, big ET-1 conversion, pH 5.5; assay type: biochemical, bovine; details: in vitro (test tube), pH 5.5
T2 construct: solubilized crude membranes or live cells
Description: In all subsequent studies, ECE-2 assays were performed at pH 5.5.
Solubilized crude membranes were prepared in parallel from CHO/ECE-2 and CHO/ECE-1 cells as described (Xu et al., 1994). For protease inhibitor studies, membranes were prepared without protease inhibitors. Standard reaction mixtures for the ECE-2 assay (50 μl) contained 0.1M 2-[N-morpholino]ethanesulfonic acid (MES) buffer (pH 5.5), 0.5M NaCl, 0.1 μM human big ET-1 and an enzyme fraction. […] For the inhibitor studies, the reactions were preincubated at 37° C. with protease inhibitor or vehicle for 15 min. Reactions were started by the addition of substrate, and incubated at 37° C. for 30 min in siliconized 0.5-ml microcentrifuge tubes. […] The mixture was then directly assayed for mature ET-1 as described (Suzuki et al., 1989). Duplicate assay wells were used for each enzyme reaction.

ECE-2 [3] = target: T2, ECE-2; assay: Double-transfection live cell assay: mature ET-1 secretion by CHO/ECE-2 cells transfected with preproET-1 cDNA; assay type: cell-based, bovine; details: production of mature ET-1; 12 h; ECE-2-preproET-1 double transfected cells; read-out: apparent IC50, live cell assay, CHO/ECE-2
Description: Production of mature ET-1 by CHO/ECE-2 cells transiently transfected with preproET-1 cDNA: Cleavage of endogenously produced big ET-1. Doubly transfected cells were cultured for 12 h in the absence or presence of the designated concentrations of ECE inhibitors, and mature ET-1 in the conditioned medium was determined. Negative control studies with parental CHO cells are shown by dashed lines.
CHO/ECE-2 cells and untransfected CHO cells were transiently transfected in parallel with a preproET-1 construct, and mature ET-1 secreted from these cells into the medium was determined by EIA.
CHO-K1 cells were cultured as described (Xu et al., 1994). Since many batches of tissue culture-grade trypsin preparations contained high levels of metalloprotease contaminants with an ECE-like activity, a highly purified crystallized preparation of trypsin (Sigma, Catalog No. T7418) was dissolved in phosphate-buffered saline at 0.013% (w/v) and used for all trypsinization procedures. […] Twelve hours after the transient transfection, cells were refed with fresh medium with or without ECE inhibitors. The medium was conditioned for an additional 12 h and directly subjected to enzyme immunoassay (EIA) for mature ET-1 (Suzuki et al., 1989).

ECE-1 [4] = target: T1, ECE-1; details: high concentrations; Xu et al., 1994; cited from earlier work
[5] = system: cultured endothelial cells; details: cited from earlier work
big endothelins = details: whole animal preparations and isolated perfused tissues; cited from earlier work
[6] = system: this family of metalloproteases; details: Opgenorth et al., 1992; cited from earlier work

T2 sequence (P0DPE2 97-883): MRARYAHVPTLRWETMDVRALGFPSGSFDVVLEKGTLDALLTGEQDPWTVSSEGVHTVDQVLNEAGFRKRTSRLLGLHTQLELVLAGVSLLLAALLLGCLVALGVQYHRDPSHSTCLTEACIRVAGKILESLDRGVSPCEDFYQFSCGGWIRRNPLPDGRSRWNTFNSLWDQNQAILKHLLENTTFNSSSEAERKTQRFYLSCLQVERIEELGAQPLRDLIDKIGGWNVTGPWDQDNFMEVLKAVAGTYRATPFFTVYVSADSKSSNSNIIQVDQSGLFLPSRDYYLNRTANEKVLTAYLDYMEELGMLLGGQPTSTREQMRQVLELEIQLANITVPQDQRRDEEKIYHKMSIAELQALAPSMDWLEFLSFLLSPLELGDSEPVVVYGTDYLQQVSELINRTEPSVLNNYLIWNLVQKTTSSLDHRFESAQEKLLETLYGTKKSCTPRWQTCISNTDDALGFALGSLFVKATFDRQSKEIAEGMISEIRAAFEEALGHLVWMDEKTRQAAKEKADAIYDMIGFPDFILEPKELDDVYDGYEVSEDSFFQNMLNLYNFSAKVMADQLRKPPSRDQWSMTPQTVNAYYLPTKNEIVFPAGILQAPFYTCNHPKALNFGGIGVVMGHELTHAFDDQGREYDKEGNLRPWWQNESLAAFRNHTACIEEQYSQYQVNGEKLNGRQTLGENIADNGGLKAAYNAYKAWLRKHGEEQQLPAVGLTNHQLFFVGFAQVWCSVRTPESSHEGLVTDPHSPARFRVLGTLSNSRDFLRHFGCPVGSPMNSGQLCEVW

Structure (SMILES): CC(C)C[C@H](NP(=O)(O)O[C@@H]1O[C@@H](C)[C@H](O)[C@@H](O)[C@H]1O)C(=O)N[C@@H](Cc1c[nH]c2ccccc12)C(=O)O [Phosphoramidon]
- inhibition of ECE-1 (ECE-1 [1]): inhibited
- IC50 (ECE-2 [2]): 0.004 µM
- IC50 (ECE-2 [3]): ~20 µM
- inhibition of big ET-1 conversion in ECE-1/preproET-1 doubly transfected cells (ECE-1 [4]): capable of inhibiting the conversion of big ET-1
- inhibition of secretion of mature ET-1 / processing of endogenous big ET-1 (words) [5]: inhibit the secretion of mature ET-1
- inhibition of secretion of mature ET-1 / processing of endogenous big ET-1 (words) ([5]; listed as phosphoramidon): inhibited
- inhibition of vasopressor actions of exogenous big endothelins (big endothelins): inhibited
- type of inhibition [6]: competitive inhibitor

From US5736376A, “Recombinant endothelin converting enzyme-2 and its use in ECE inhibitor screening” (Board of Regents, The University of Texas System, priority 1995, dated 1998)
